According to patent US8367873B2, “Phenyl-substituted bicyclooctane-1,3-dione derivatives” (Bayer Cropscience AG, priority 2008, dated 2013):

Tests used:
Format in all cases: in vivo
[1] = system: monocotylidonous and dicotylidonous weed and crop plants; experiment: Herbicidal post-emergence action (other test plants); settings: post-emergence method, 80 g/ha
Outline: (§1)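 Greenhouse-grown weeds were treated post-emergence at the one-leaf stage, two to three weeks after sowing in sandy loam. Compounds formulated as WP were sprayed at various rates in 600 l/ha water with 0.2% wetting agent. Damage was scored visually after about three weeks versus untreated controls (0% = like control, 100% = dead).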

Echinocloa crus-galli [2] = experiment: Herbicidal post-emergence action; settings: post-emergence method, 80 g/ha
Outline: as §1

Setaria viridis [3] = experiment: Herbicidal post-emergence action; settings: post-emergence method, 80 g/ha
Outline: as §1

Alopecurus myosuroides [4] = experiment: Herbicidal post-emergence action; settings: post-emergence method, 80 g/ha
Outline: as §1

Lolium multiflorum [5] = experiment: Herbicidal post-emergence action; settings: post-emergence method, 80 g/ha
Outline: as §1

[6] = system: monocotylidonous and dicotylidonous weed and crop plants; experiment: Herbicidal pre-emergence action (other test plants); settings: pre-emergence method, 80 g/ha, greenhouse, visual assessment vs untreated controls
Text: (§2) Seeds of monocotylidonous and dicotylidonous weed and crop plants are placed in sandy loam in wood fibre pots and covered with soil. The test compounds, formulated in the form of wettable powders (WP), are then, as an aqueous suspension with a water application rate of 600 l/ha (converted), with 0.2% of wetting agent added, applied to the surface of the covering soil in different amounts.
(§3) After the treatment, the pots are placed in a greenhouse and kept under good growth conditions for the test plants. The visual assessment of the emergence damage on the test plants is carried out after a trial period of three weeks by comparison with the untreated controls (herbicidal effect in percent: 100% effect=the plants have died, 0% effect=like control plants).

Echinocloa crus-galli [7] = experiment: Herbicidal pre-emergence action; settings: pre-emergence method, 80 g/ha, greenhouse, visual assessment vs untreated controls
Text: as §2, §3

Setaria viridis [8] = experiment: Herbicidal pre-emergence action; settings: pre-emergence method, 80 g/ha, greenhouse, visual assessment vs untreated controls
Text: as §2, §3

Alopecurus myosuroides [9] = experiment: Herbicidal pre-emergence action; settings: pre-emergence method, 80 g/ha, greenhouse, visual assessment vs untreated controls
Text: as §2, §3

Lolium multiflorum [10] = experiment: Herbicidal pre-emergence action; settings: pre-emergence method, 80 g/ha, greenhouse, visual assessment vs untreated controls
Text: as §2, §3

Compound | herbicidal effect against AVEFA (Avena fatua) [1] | herbicidal effect against ECHCG (Echinochloa crus-galli) (Echinocloa crus-galli [2]) | herbicidal effect against SETVI (Setaria viridis) (Setaria viridis [3]) | herbicidal effect against ALOMY (Alopecurus myosuroides) (Alopecurus myosuroides [4]) | herbicidal effect against LOLMU (Lolium multiflorum) (Lolium multiflorum [5]) | herbicidal effect AVEFA [6] | herbicidal effect ECHCG (Echinocloa crus-galli [7]) | herbicidal effect SETVI (Setaria viridis [8]) | herbicidal effect ALOMY (Alopecurus myosuroides [9]) | herbicidal effect LOLMU (Lolium multiflorum [10])
CCc1cc(C)cc(CC)c1C1=C(O)C2CC3(COC(C)O3)CC2C1=O (mixture of isomers) [I-a-7] | 60% | 100% | 90% | 90% | 100% | 80% | 70% | 70% | 100% | 90%
CCc1cc(C)cc(CC)c1C1=C(O)C2CC3(CC2C1=O)OC(C)CC(C)O3 (mixture of isomers) [I-a-12] | 100% | 100% | 100% | 100% | 100% | 80% | 100% | 90% | 100% | 100%
CCc1cc(C)cc(CC)c1C1=C(O)C2CC3(CC2C1=O)OCCS3 (mixture of isomers) [I-a-35] | 80% | 100% | 90% | 100% | 100% | 80% | 70% | 70% | 80% | 100%
CCc1cc(C)cc(CC)c1C1=C(OC(=O)C(C)(C)C)C2CC3(CC2C1=O)OCCCS3 (mixture of isomers) [I-b-20] | 30% | 100% | 0% | 0% | 60% | 90% | 80% | 90% | 100% | 100%
CCc1cc(C)cc(CC)c1C1=C(OC(=O)C(C)C)C2CC3(CC2C1=O)OCCS3 (mixture of isomers) [I-b-21] | 90% | 100% | 90% | 90% | 100% | 80% | 80% | 20% | 80% | 100%
CCC(C)(C)C(=O)OC1=C(c2c(C)cc(C)cc2C)C(=O)C2CC3(COC(C)(C)O3)CC12 (mixture of isomers) [I-b-45] | 0% | 90% | 40% | 80% | 90% | 40% | 20% | 30% | 90% | 60%
Cc1cc(C)c(C2=C(OC(=O)C(C)C)C3CC4(COC(C)(C)O4)CC3C2=O)c(C)c1 (mixture of isomers) [I-b-46] | 40% | 90% | 80% | 90% | 100% | 60% | 0% | 0% | 90% | 100%
Cc1cc(C)c(C2=C(OC(=O)C(C)(C)C)C3CC4(COC(C)(C)O4)CC3C2=O)c(C)c1 (mixture of isomers) [I-b-48] | 40% | 90% | 80% | 90% | 90% | 20% | 0% | 0% | 80% | 70%
CC(=O)OC1=C(c2c(C)cc(C)cc2C)C(=O)C2CC3(COC(C)(C)O3)CC12 (mixture of isomers) [I-b-49] | 80% | 100% | 60% | 90% | 100% | 70% | 50% | 0% | 90% | 70%
Cc1cc(C)c(C2=C(OC(=O)C(C)(C)CCl)C3CC4(COC(C)(C)O4)CC3C2=O)c(C)c1 (mixture of isomers) [I-b-51] | 0% | 100% | 40% | 90% | 60% | 30% | 30% | 0% | 80% | 70%
CCOC(=O)OC1=C(c2c(CC)cc(C)cc2CC)C(=O)C2CC3(CC12)OCC(C)O3 (mixture of isomers) [I-c-8] | 60% | 100% | 90% | 90% | 100% | 40% | 60% | 50% | 60% | 100%
CCOC(=O)OC1=C(c2c(CC)cc(C)cc2CC)C(=O)C2CC3(CC12)OCCCS3 (mixture of isomers) [I-c-19] | 100% | 100% | 100% | 100% | 100% | 70% | 50% | 90% | 100% | 90%
CCOC(=O)OC1=C(c2c(CC)cc(C)cc2CC)C(=O)C2CC3(CC12)OCCS3 (mixture of isomers) [I-c-30] | 40% | 100% | 70% | 80% | 100% | 90% | 80% | 60% | 100% | 100%
